# Laboratory results from US9745273B2, “Phenazine derivatives as anti-neoplastic agents and anti-infective agents” (Universitetet I Oslo, priority 2013, dated 2017).
# Legend:
# [1] = Solubility in water; assay type: physicochemical
# Description: In the prior art, these problems are not properly addressed. […] In DE 2016467, DE 2115660, U.S. Pat. No. 3,929,790, U.S. Pat. No. 3,937,707, WO 2008/089283, and in Alonso et al, Chem. Comm. 2004, 41, 412-413, methods to alkylate iodinin or myxin via their alkali salts is described. However, the functional groups introduced were alkyl groups, rendering the derivatives less water soluble than the parent compounds. No discussion of improvement in water solubility was described.
# [2] = tested on: mouse sarcoma model; conditions: in vivo; cited from earlier work
# [3] = tested on: certain other bacteria; conditions: cited from earlier work
# [4] = Solubility in biocompatible and organic solvents; assay type: physicochemical
# Description: However, production of nano-carriers by emulsion-evaporation merit that the compound to be encapsulated must be dissolved in an organic solvent that is immiscible with water. The present invention enables the production of iodinin-encapsulated nanocarriers—iodinin and a biodegradable polymer can be dissolved in chloroform and mixed with water to make a nano-suspension, and organic solvent evaporated to co-precipitate the polymer with iodinin. To improve the nanonization of iodinin, a polymer can be precipitated to produce nanoparticles. The advantage of incorporating iodinin itself into a biodegradable polymer is that the drug load in the formulation may be higher. The particles may be coated with monoclonal antibodies, e.g. CD11 or CD33 against AML.
# [5] = tested on: rat cardiomyoblasts; conditions: at comparable anti-AML activity; cited from earlier work
# [6] = tested on: blood platelets; conditions: at comparable anti-AML activity; cited from earlier work
# [7] = tested on: intestinal mucosa; conditions: mouse, direct infusion of supra-saturated solution into the gut through a tube; cited from earlier work
# [8] = tested on: leukaemia cell lines and AML-patient blasts; conditions: cited from earlier work
# [9] = tested on: peripheral blood leukocytes (PBL); conditions: at comparable anti-AML activity; cited from earlier work
Compound,solubility in water [1],activity against a mouse sarcoma model [2],inhibition of growth of other bacteria [3],solubility in biocompatible solvents ([4]; biocompatible solvents),solubility in organic solvents ([4]; organic solvents such as toluene and chloroform),toxicity towards rat cardiomyoblasts versus DNR [5],toxicity towards blood platelets versus DNR [6],intestinal symptoms / histological alteration of the intestinal mucosa [7],potency against leukaemia cell lines and AML-patient blasts [8],effect on AML cells ([8]; iodinin extracted from marine actinomycetes bacteria),toxicity towards peripheral blood leukocytes (PBL) versus DNR [9]
COc1cccc2c1[n+]([O-])c1cccc(O)c1[n+]2[O-] [myxin],practically insoluble,low activity,,,,,,,,,
"[O-][n+]1c2cccc(O)c2[n+]([O-])c2cccc(O)c21 [iodinin, 1,6-dihydroxyphenazine-5,10-dioxide]",practically insoluble,low activity,inhibit the growth,poorly soluble,soluble,less toxic than DNR,less toxic than DNR,failed to cause any intestinal symptoms or histologically detectable alteration of the intestinal mucosa,particularly potent,pronounced effect,less toxic than DNR
